Drawing on US20230364012A1, “STABLE OPHTHALMIC COMPOSITION OF LOTEPREDNOL” (MANKIND PHARMA LTD., priority 2022, published 2023), this text covers Particle size D10, Particle size D50 and Particle size D90 for one molecule.

This data set is described as follows: Particle size of the compositions, tested initially, after 15 days and one month (stability studies). In kind it is physicochemical. Particulars: Initial. On the procedure:
The particle size of the compositions of the invention were tested initially, after 15 days and one month. The compositions of the invention were then observed and tested for particle aggregation, settling, and flocculation on long term storage. The observations at one month, three months, 6 months, 9 months are as follows: […]

`CCOC(=O)O[C@]1(C(=O)OCCl)CC[C@H]2[C@@H]3CCC4=CC(=O)C=C[C@]4(C)[C@H]3[C@@H](O)C[C@@]21C` [API, Loteprednol etabonate] had a Particle size D10 of 1 µm, a Particle size D50 of 3.3 µm and a Particle size D90 of 9.1 µm.
